Structures can show the parent of a compound that is named as a salt.
Experiments:
[1] = target: T1, human RORγt ligand binding domain (RORγt LBD) (Homo sapiens, UniProt P51449); experiment: RORγt ThermoFluor assay (thermal shift, ligand binding affinity); details: estimated from concentration response of thermal shift
T1 construct: His-tag (N); TurboTEV protease cleavage site (ENLYFQG) (N); made in house; host or cells: E. coli (pHIS1, modified pET vector)
T1 sequence (P51449 with tags, fused parts or gaps): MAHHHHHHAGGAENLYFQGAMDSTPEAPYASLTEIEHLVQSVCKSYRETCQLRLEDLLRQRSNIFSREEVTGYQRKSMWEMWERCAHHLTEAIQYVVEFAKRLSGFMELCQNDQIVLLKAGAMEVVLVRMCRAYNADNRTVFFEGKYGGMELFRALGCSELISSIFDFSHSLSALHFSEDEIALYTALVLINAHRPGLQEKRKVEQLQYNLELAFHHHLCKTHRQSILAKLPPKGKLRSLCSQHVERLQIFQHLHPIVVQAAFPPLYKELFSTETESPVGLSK
Experimental: This approach is applicable to a wide variety of systems, and rigorous in theoretical interpretation through quantitation of equilibrium binding constants (KD).
The shift in the melting point described as a ΔTm is proportional to the concentration and affinity of the ligand.
RORγt ThermoFluor® Assay Construct
Protein and compound solutions are dispensed into black 384-well polypropylene PCR microplates (Abgene) and overlayed with silicone oil (1 μL Fluka, type DC 200) to prevent evaporation.
Fluorescence was measured by continuous illumination with UV light (Hamamatsu LC6) supplied via fiber optic and filtered through a band-pass filter (380-400 nm; >6 OD cutoff). Fluorescence emission of the entire 384-well plate was detected by measuring light intensity using a CCD camera (Sensys, Roper Scientific) filtered to detect 500±25 nm, resulting in simultaneous and independent readings of all 384 wells. Images were collected at each temperature, and the sum of the pixel intensity in a given area of the assay plate was recorded versus temperature. Reference wells contained RORγt without compounds, and the assay conditions were as follows: • 0.065 mg/mL RORγt • 60 μM 1,8-ANS • 100 mM Hepes, pH 7.0 • 10 mM NaCl • 2.5 mM GSH • 0.002% Tween-20
Project compounds were arranged in a pre-dosed mother plate (Greiner Bio-one) wherein compounds are serially diluted in 100% DMSO by 1:2 from a high concentration of 10 mM over 12 columns within a series (column 12 is a reference well containing DMSO, no compound).
The compounds were robotically dispensed directly into assay plates (1×=[…]) using a Hummingbird capillary liquid handling instrument (Digilab). Following compound dispense, protein and dye in buffer was added to achieve the final assay volume of 3 μL, followed by 1 μL of silicone oil.

human RORγt LBD = target: T2, human RORγt LBD (Homo sapiens, UniProt P51449); experiment: RORγt reporter assay (GAL4-RORγt LBD luciferase in HEK293T cells); format: cell-based; details: for IC50: HEK293T cells, 24 hours compound treatment; for inhibition at 6 µM: HEK-293T, read-out: RORγt reporter Assay, % inhibition @ 6 μM, HEK293T cells, 6 μM compound
T2 construct: expressed in transfected cells
T2 sequence (P51449 258-518): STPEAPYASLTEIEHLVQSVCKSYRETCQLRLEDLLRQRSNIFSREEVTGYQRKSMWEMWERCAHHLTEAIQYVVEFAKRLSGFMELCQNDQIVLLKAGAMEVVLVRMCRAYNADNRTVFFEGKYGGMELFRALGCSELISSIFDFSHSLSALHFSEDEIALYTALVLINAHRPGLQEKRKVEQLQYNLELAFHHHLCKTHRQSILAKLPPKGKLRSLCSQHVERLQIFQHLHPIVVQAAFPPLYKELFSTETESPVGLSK
Text: A reporter assay was used to test functional activity of RORγt modulatory compounds on transcriptional activation driven by the RORγt LBD. Cells used in the assay were co-transfected with two constructs. The first construct, pBIND-RORγt LBD, contained the wild type human RORγt LBD fused to the DNA binding domain of the GAL4 protein. The second construct, pGL4.31 (Promega Cat no. C935A), contained multiple GAL4 responsive DNA elements upstream of firefly luciferase. […] The mutant construct was called pBIND-RORγt-AF2.
The pBIND vector contains the GAL4 DNA Binding Domain (GAL4 DBD) and the renilla luciferase gene under control of the SV40 promoter. Renilla luciferase expression serves as a control for transfection efficiency and cell viability.
The reporter assay was performed by transiently transfecting HEK293T cells with 5 ng of pBIND-RORγt LBD or pBIND-RORγt LBD-AF2 and 5 μg pGL4.31 (Promega Cat no. C935A) using Fugene 6 (Invitrogen Cat no. E2691) at a 1:6 ratio of DNA:Fugene 6 in a T-75 flask in which cells were at least 80% confluent. Twenty four hours after bulk transfection, cells were plated into 96-well plates at 50,000 cells/well in phenol-red free DMEM containing 5% Lipid Reduced FCS and Pen/Strep. Six hours after plating, cells were treated with compounds for 24 hours. Media was removed and cells were lysed with 50 μL 1× Glo Lysis Buffer (Promega). Dual Glo Luciferase Reagent (50 μL/well) was then added and firefly luciferase luminescence was read on an Envision after a ten minute incubation. Finally, Stop and Glo reagent (50 μL/well) was added and renilla luciferase luminescence was read on an Envision after a ten minute incubation. To calculate the effect of compounds on RORγt activity, the ratio of firefly to renilla luciferase was determined and plotted against compound concentration. Agonist compounds increase RORγt-driven luciferase expression, and antagonist or inverse agonist compounds decrease luciferase expression.

Row | Kd [1] | IC50 (human RORγt LBD) | inhibition at 6 µM (human RORγt LBD) | Compound
1 | 990 nM | 1600 nM | 88% | COC(c1ccc2nc(Cl)c(-c3ccccc3)c(Cl)c2c1)(c1cnccn1)c1cncn1C (centres unmarked) [Example 127, 2,4-Dichloro-6-(methoxy(1-methyl-1H-imidazol-5-yl)(pyrazin-2-yl)methyl)-3-phenylquinoline•TFA]
2 | 400 nM | > 6000 nM | 62% | OC(c1ccccc1)(c1ccc2nc(C(F)(F)F)c(-c3ccccc3)c(C(F)(F)F)c2c1)C1CCNCC1 (centres unmarked) [Example 167, Phenyl(3-phenyl-2,4-bis(trifluoromethyl)quinolin-6-yl)(piperidin-4-yl)methanol•TFA]
3 | 8500 nM | ~2000 nM | 83% | Cn1cncc1C(O)(c1ccncc1)c1ccc2nc(N3CCC(O)CC3)c(-c3ccccc3)c(Cl)c2c1 (centres unmarked) [Example 72, 1-{4-Chloro-6-[hydroxy(1-methyl-1H-imidazol-5-yl)pyridin-4-ylmethyl]-3-phenylquinolin-2-yl}piperidin-4-ol•TFA]
4 | 9.3 nM | > 6000 nM | – | COc1nc2c(C)cc(C(O)(c3ccc(C(F)(F)F)nc3)c3cncn3C)cc2c(Cl)c1-c1ccc(OC(F)(F)F)cc1 (racemic) [Example 183a, (4-Chloro-2-methoxy-8-methyl-3-(4-(trifluoromethoxy)phenyl)quinolin-6-yl)(1-methyl-1H-imidazol-5-yl)(6-(trifluoromethyl)pyridin-3-yl)methanol•TFA]
5 | 5600 nM | 2100 nM | 67% | Cn1cncc1C(N)(c1ccc2nc(Cl)c(-c3ccccc3)c(Cl)c2c1)c1ccccn1 (centres unmarked) [Example 31, 1-(2,4-Dichloro-3-phenylquinolin-6-yl)-1-(1-methyl-1H-imidazol-5-yl)-1-pyridin-2-ylmethanamine•HCl]
6 | 610 nM | 740 nM | 104% | N#Cc1nc2ccc(C(O)(c3ccc(C(F)(F)F)nc3)c3cccc(Cl)c3)cc2c(C#N)c1-c1ccccc1 (centres unmarked) [Example 114, 6-{(3-Chlorophenyl)(hydroxy) [6-(trifluoromethyl)pyridin-3-yl]methyl}-3-phenylquinoline-2,4-dicarbonitrile]
7 | 1600 nM | 1100 nM | 99% | CN(C)c1nc2ccc(C(O)(c3cccnc3)c3ccccn3)cc2c(Cl)c1-c1ccccc1 (centres unmarked) [Example 43, [4-Chloro-2-(dimethylamino)-3-phenylquinolin-6-yl](pyridin-2-yl)pyridin-3-ylmethanol•TFA]
8 | 2500 nM | 640 nM | 94% | CCN(CC)c1c(-c2ccccc2)c(Cl)nc2ccc(C(O)(c3cccnc3)c3cccc(Cl)c3)cc12 (centres unmarked) [Example 101, [2-Chloro-4-(diethylamino)-3-phenylquinolin-6-yl](3-chlorophenyl)pyridin-3-ylmethanol•TFA]
9 | 4000 nM | 2000 nM | 94% | Cc1cc(C(O)(c2ccc3nc(Cl)c(-c4ccccc4)c(Cl)c3c2)c2nccn2C)cc(Cl)n1 (centres unmarked) [Example 46, (2-Chloro-6-methylpyridin-4-yl)(2,4-dichloro-3-phenylquinolin-6-yl)(1-methyl-1H-imidazol-2-yl)methanol]
10 | 1400 nM | ~2000 nM | 91% | CN(C)c1c(-c2ccccc2)c(Cl)nc2ccc(C(O)(c3cccnc3)c3cccc(Cl)c3)cc12 (centres unmarked) [Example 42, [2-Chloro-4-(dimethylamino)-3-phenylquinolin-6-yl](3-chlorophenyl)pyridin-3-ylmethanol•TFA]
11 | 1800 nM | 2000 nM | 80% | OC(c1ccc(Cl)nc1)(c1cccc(F)c1)c1ccc2ncc(-c3ccccc3)c(Cl)c2c1 (centres unmarked) [Example 61, (4-Chloro-3-phenylquinolin-6-yl)(6-chloropyridin-3-yl)(3-fluorophenyl)methanol]
12 | 57 nM | 320 nM | 98% | Cc1ccc(C(O)(c2cc(C)c3nc(Cl)c(-c4ccccc4)c(Cl)c3c2)c2cncn2C)cn1 (centres unmarked) [Example 156, (2,4-Dichloro-8-methyl-3-phenylquinolin-6-yl)(1-methyl-1H-imidazol-5-yl)(6-methylpyridin-3-yl)methanol•TFA]
13 | – | – | 100% | Cn1cncc1C(O)(c1ccc(C(F)(F)F)nc1)c1ccc2nc(C(F)(F)F)c(-c3ccccc3)c(C#N)c2c1 (single isomer, unassigned) [Example 173b, 6-(Hydroxy(1-methyl-1H-imidazol-5-yl)(6-(trifluoromethyl)pyridin-3-yl)methyl)-3-phenyl-2-(trifluoromethyl)quinoline-4-carbonitrile]
14 | 650 nM | 1000 nM | 66% | Cn1ccnc1C(O)(c1cncnc1)c1ccc2nc(Cl)c(-c3ccccc3)c(Cl)c2c1 (centres unmarked) [Example 125, (2,4-Dichloro-3-phenylquinolin-6-yl)(1-methyl-1H-imidazol-2-yl)(pyrimidin-5-yl)methanol]
15 | 3300 nM | ~6000 nM | 71% | CCN1CCC(C(O)(c2ccccc2)c2ccc3nc(C(F)(F)F)c(-c4ccccc4)c(C(F)(F)F)c3c2)CC1 (centres unmarked) [Example 168, (1-Ethylpiperidin-4-yl)(phenyl)(3-phenyl-2,4-bis(trifluoromethyl)quinolin-6-yl)methanol•TFA]
16 | 330 nM | 820 nM | 92% | COc1ccc(C(O)(c2cccnc2)c2ccc3nc(Cl)c(-c4ccccc4)c(Cl)c3c2)cc1 (centres unmarked) [Example 55, (2,4-Dichloro-3-phenylquinolin-6-yl)(4-methoxyphenyl)(pyridin-3-yl)methanol]
17 | 950 nM | ~2000 nM | 61% | Cn1cncc1C(O)(c1ccncc1)c1ccc2ncc(-c3ccccc3)c(Cl)c2c1 (centres unmarked) [Example 53, (4-Chloro-3-phenylquinolin-6-yl)(1-methyl-1H-imidazol-5-yl)pyridin-4-ylmethanol•TFA]
18 | 2800 nM | – | – | Cc1ccc(C(O)(c2cc[nH]c2)c2cc(C)c3nc(Cl)c(-c4ccccc4)c(Cl)c3c2)cn1 (centres unmarked) [Example 157, (2,4-Dichloro-8-methyl-3-phenylquinolin-6-yl)(6-methylpyridin-3-yl)(1H-pyrrol-3-yl)methanol•TFA]
19 | – | – | 103% | Cn1cncc1C(O)(c1ccc(C(F)(F)F)nc1)c1ccc2nc(C(F)(F)F)c(-c3ccccc3)c(C#N)c2c1 (racemic) [Example 173a, 6-(Hydroxy(1-methyl-1H-imidazol-5-yl)(6-(trifluoromethyl)pyridin-3-yl)methyl)-3-phenyl-2-(trifluoromethyl)quinoline-4-carbonitrile•TFA]
